Legend:
[1] = tested on: claudin-4; test: Western blotting of claudin-4 in rat small intestine after in situ treatment; type: in vivo
Procedure: Western blotting was performed by the method described previously with slight modifications. Three male Wistar rats weighing 250 g were prepared to perform an in situ closed-loop method on the small intestine, as mentioned above. A control study, a treatment study, and a pretreatment study were conducted on the first, second, and third rat, respectively. For the control study, only PBS solution (pH 7.4) was administered into the small intestine, and then, the rat was sacrificed, while for the treatment study, SLG-30 was administered for 1 h, and then, the rat was sacrificed without washing the SLG-30 out. The pretreatment study was performed by administrating SLG-30 for 1 h then washing it out with PBS solution (pH 7.4), followed by sacrificing the rat after 4 h. The small intestine (60 cm) of three rats was taken and treated, as mentioned above, for extracting the BBMVs. […]
The expression levels of proteins from the claudin family, in the homogenate of the small intestine membrane, were evaluated by western blotting. […] The signals were visualized by luminescence imaging (Fujifilm Luminescent Image Analyzer LAS4000 System, Tokyo, Japan). The intensity of each signal was corrected using the values obtained from the β-actin bands, and the relative protein intensity was expressed as the fold change compared to the relative protein intensity in the normal group.

[2] = tested on: brush-border membrane vesicles (BBMVs); test: Membrane fluidity of BBMVs by fluorescence polarization (fluorescence anisotropy); conditions: rat BBMVs, 37 °C, SLG-30 0.1-1.0% v/v, vs control, n = 4
Procedure: To prepare BBMVs, we followed the methods as reported previously with a slight modification. Briefly, an in situ small intestinal loop was prepared in each rat, as mentioned above, and then, PBS (pH 7.4) was administered into the loop. The fat was trimmed off from the small intestine and mesentery. Then, the whole small intestine was soaked in ice-cold PBS (pH 7.4). The small intestine was divided into 10 cm segments. Mucosa was scraped out with a slide glass from each of these segments and used for subsequent studies. BBMVs were prepared by the divalent cation precipitation method using MgCl2 in the presence of ethylenebis (oxyethylenenitrilo) tetraacetic acid (EGTA). Briefly, the collected mucosa was homogenized in a buffer containing mannitol (300 mM), EGTA (5 mM), and Tris (pH 7.4) (12 mM) by using a tissue homogenizer. An aqueous solution of 10 mM magnesium chloride was added to the homogenate. The homogenate was centrifuged at 3000× g for 15 min. The supernatant was then centrifuged at 32,000× g for 30 min. The pellet was resuspended in a buffer containing mannitol (300 mM), EGTA (5 mM), and Tris (pH 7.4) (12 mM) by using a 26-G needle. The protein concentration was determined by the BCA method using bovine serum albumin as a standard, and the final concentration was adjusted to 1 mg/ml in each Eppendorf tube. The samples were frozen by liquid nitrogen and kept at −80 °C for further studies.
The BBMVs (100 μg protein) were incubated with 1 μM DPH, with 0.5 μM tma-DPH or with 5 μM DNS-Cl in HEPES-Tris buffer (25 mM HEPES, 5.4 mM KCl, 1.8 mM CaCl2, 0.8 mM MgSO4, 140 mM NaCl, 5 mM glucose, pH 7.4 adjusted by 1 M Tris) in the dark at 37 °C for 30 min [25, 28]. Then, various concentrations (0.1% v/v, 0.25% v/v, 0.5% v/v, and 1.0% v/v) of SLG-30 were added. Then, the samples were incubated in the dark for 1 min at 37 °C. For the control group, the same procedure was carried out by adding the HEPES-Tris buffer only. The fluorescence intensities and the steady-state polarization of fluorescence expressed as the fluorescence anisotropy, r, of the labeled membrane vesicles were measured at 37 °C. The excitation and emission wavelengths were λex = 360 nm, and λem = 430 nm for DPH and tma-DPH and λex = 380 nm and λem = 480 nm for DNS-Cl. The measurements were carried out by using a Hitachi Spectrofluorometer (F-2000 Spectrofluorometer, Hitachi Seisakusho Corp, Yokohama, Japan) equipped with a polarizer set.
The fluorescence anisotropy (r) was calculated using the following equation: r=IV−IH/IV+2IH where IV and IH respectively represent the […] fluorescence intensities to the polarized excitation plane.

With `CCCCCCCCCCCC(=O)NC(CCC(=O)NCCCCC(NC(=O)CCC(NC(=O)CCCCCCCCCCC)C(=O)O)C(=O)O)C(=O)O` (centres unmarked) [SLG-30, sodium dilauramidoglutamide lysine] the “claudin-4 expression level less than the control” value ([1]; pretreatment study: 0.5% (v/v) SLG-30 for 1 h, washed out, proteins extracted after 4 h) was ~45%, the “decrease of the intensity of the claudin-4 band” value ([1]; treatment with 0.5% (v/v) SLG-30 for 1 h, rat small intestine, vs control) was 64% and the “fluorescence anisotropy of tma-DPH (outer lipid bilayers)” value ([2]; 0.5 μM tma-DPH) was “significantly increased”. For the same compound, the “fluorescence anisotropy of DPH (inner lipid bilayers)” value ([2]; 1 μM DPH) was “slightly decreased” and the “fluorescence anisotropy of DNS-Cl (protein portion)” value ([2]; 5 μM DNS-Cl, p < 0.01) was “significantly reduced”.
